Experimental data as given in patent US20100256214A1, “EPH RECEPTOR LIGANDS AND METHODS OF USE” (Burnham Institute for Medical Research, priority 2009, published 2010).

Molecular target: EphA2 (Homo sapiens, UniProt P29317)
Experiment: EphA2 tyrosine phosphorylation in HUVE endothelial cells treated with TNFα
Type: cell-based
Parameters: endogenous in cells
Method: FIGS. 6A-6F. A. HT22 neuronal cells pretreated with the indicated concentrations of compounds 1 or 2 for 15 min were stimulated with 0.5 μg/mL ephrin-A5 Fc (+) or Fc as a control (−) for 20 min in the continued presence of the compounds. EphA4 immunoprecipitates were probed with anti-phosphotyrosine antibody (PTyr) and reprobed for EphA4. C indicates immunoprecipitations performed with control antibodies from non-immunized rabbits. […] Error bars represent the standard error from 4 experiments for compound 1 and 3 experiments for compound 2. […] C. COS7 cells pretreated with the indicated concentrations of compounds 1 or 2 for 15 min were stimulated with 0.1 μg/mL ephrin-A1 Fc or Fc as a control in the continued presence of the compounds. EphA2 immunoprecipitates were probed with anti-phosphotyrosine antibody (PTyr) and reprobed for EphA2. C indicates immunoprecipitations performed with control antibodies. […] Levels of EphA2 phosphorylation quantified from immunoblots and normalized to the amount of immunoprecipitated EphA2 were also performed. […]
Measurement of Receptor Tyrosine Phosphorylation in Cells—HT22 neuronal cells, which endogenously express EphA4, are derived from immortalized mouse hippocampal neurons (Li et al. (1997) Neuron 19(2), 453-463). […] The protein concentration was calculated using the BCA protein assay kit (Pierce Biotecnology, Rockford, Ill.). […]

Sequence of EphA2 (P29317 24-976): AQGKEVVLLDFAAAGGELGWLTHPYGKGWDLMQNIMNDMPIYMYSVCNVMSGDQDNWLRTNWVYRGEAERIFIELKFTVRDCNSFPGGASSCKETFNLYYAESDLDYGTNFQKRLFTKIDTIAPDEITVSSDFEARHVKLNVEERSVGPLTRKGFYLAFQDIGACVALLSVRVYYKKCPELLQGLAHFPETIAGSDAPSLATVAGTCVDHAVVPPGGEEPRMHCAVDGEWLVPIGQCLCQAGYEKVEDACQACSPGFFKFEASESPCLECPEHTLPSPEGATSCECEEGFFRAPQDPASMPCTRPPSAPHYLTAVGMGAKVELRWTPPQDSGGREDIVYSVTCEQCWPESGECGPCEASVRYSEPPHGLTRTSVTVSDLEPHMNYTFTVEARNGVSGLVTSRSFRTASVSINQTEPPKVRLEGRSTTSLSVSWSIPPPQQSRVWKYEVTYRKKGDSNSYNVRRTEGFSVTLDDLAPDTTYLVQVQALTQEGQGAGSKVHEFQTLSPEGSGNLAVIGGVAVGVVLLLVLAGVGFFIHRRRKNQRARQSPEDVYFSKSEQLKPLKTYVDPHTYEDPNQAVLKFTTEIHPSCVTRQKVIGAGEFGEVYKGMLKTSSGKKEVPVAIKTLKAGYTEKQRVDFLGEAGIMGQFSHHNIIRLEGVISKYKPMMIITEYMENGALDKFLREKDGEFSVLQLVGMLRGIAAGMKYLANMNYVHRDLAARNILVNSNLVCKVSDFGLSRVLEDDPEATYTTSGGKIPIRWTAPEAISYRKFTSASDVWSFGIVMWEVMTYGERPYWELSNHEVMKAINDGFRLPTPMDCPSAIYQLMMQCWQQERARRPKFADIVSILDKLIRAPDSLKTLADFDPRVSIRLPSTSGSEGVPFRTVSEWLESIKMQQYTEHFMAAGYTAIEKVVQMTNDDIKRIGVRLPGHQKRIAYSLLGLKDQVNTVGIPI

SMILES	tyrosine phosphorylation of endogenous EphA2
Cc1ccc(C)n1-c1ccc(C(=O)O)c(O)c1 [compound 1, 4-(2,5-dimethyl-pyrrol-1-yl)-2-hydroxy-benzoic acid]	inhibited
Cc1ccc(C)n1-c1ccc(O)c(C(=O)O)c1 [compound 2, 5-(2,5 dimethyl-pyrrol-1-yl)-2-hydroxy-benzoic acid]	inhibited
